Values of other authors in patent US6387352B1, “Mouthwash compositions” (Erling Johansen, priority 1996, dated 2002).

Conditions: compared to similar solutions excluding fluoride

Structure (SMILES): F [fluoride]
- increase in hardness of dental enamel on addition of fluoride to calcium/phosphate solution: (about) four times increase in hardness
